Assay results published in paper PMC4212247 (Neoplasia (New York, N.Y.), 2014).

Biological target: p70 S6 kinase (S6K1) (Homo sapiens, UniProt P23443)
Test: in vitro kinase assay with recombinant S6K1, peptide substrate and […] ATP
Type: biochemical

Chain of p70 S6 kinase (S6K1) (P23443 24-525): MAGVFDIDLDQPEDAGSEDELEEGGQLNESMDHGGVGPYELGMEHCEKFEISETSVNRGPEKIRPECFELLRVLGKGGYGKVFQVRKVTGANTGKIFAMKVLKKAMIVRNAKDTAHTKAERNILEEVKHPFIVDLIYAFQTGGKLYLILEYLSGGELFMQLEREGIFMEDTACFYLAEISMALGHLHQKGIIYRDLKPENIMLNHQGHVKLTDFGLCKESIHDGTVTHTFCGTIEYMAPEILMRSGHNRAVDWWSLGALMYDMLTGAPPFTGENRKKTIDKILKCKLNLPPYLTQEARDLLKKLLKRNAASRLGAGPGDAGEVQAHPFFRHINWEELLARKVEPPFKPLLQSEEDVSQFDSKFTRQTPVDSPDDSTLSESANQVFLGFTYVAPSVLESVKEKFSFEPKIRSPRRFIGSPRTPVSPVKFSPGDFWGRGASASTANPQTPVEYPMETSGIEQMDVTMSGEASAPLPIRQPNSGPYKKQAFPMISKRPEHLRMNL

SMILES	IC50 [µM]
C/C(O)=C(\C#N)C(=O)Nc1ccc(C(F)(F)F)cc1 [A77 1726]	~80
Cc1oncc1C(=O)Nc1ccc(C(F)(F)F)cc1 [leflunomide]	~55
